{"source": "PubChem BioAssay AID1963973", "about": "(Molecular Pharmacology Branch, DTP, NCI, 2024);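 note: spheroids exposed to agents for 7 days before the viability read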", "test_system": "883617-216-R-J1-PDC tumor spheroids, viability", "assay": "Anticancer human tumor 883617-216-R-J1-PDC patient-derived bladder carcinoma cell line growth inhibition [PI3K]", "settings": "spheroids with HUVEC and MSC; for IC50: curve of first compound; for viability, T/C: stronger effect = lower value", "how_it_was_run": "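Tumor cells were combined with HUVEC and MSCs into spheroids, then dosed with PI3K-inhibitor combinations over half-log ranges capped near clinical Cmax or 10 microM.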"}
{"smiles": "CC1(C)CCC(Nc2ncc(C(F)(F)F)c(-c3c[nH]c4c(P(C)(C)=O)c(C#N)ccc34)n2)CN1", "note": "(configuration not stated) + Cc1nc(NC(=O)N2CCCC2C(N)=O)sc1-c1ccnc(C(C)(C)C(F)(F)F)c1", "values": [{"measurement": "IC50", "setting": "second compound 0.0316 µM", "result": "< 31.6", "unit": "nM"}, {"measurement": "IC50", "setting": "second compound 0.1 µM", "result": "< 31.6", "unit": "nM"}, {"measurement": "IC50", "setting": "second compound 0.316 µM", "result": "< 31.6", "unit": "nM"}, {"measurement": "IC50", "setting": "second compound 1 µM", "result": "< 31.6", "unit": "nM"}, {"measurement": "IC50", "setting": "second compound 3.16 µM", "result": "< 31.6", "unit": "nM"}, {"measurement": "IC50", "setting": "second compound 10 µM", "result": "< 31.6", "unit": "nM"}, {"measurement": "viability, T/C", "setting": "second compound 0.0316 µM, first compound 0.0316 µM", "result": 35, "unit": "%"}, {"measurement": "viability, T/C", "setting": "second compound 0.0316 µM, first compound 0.1 µM", "result": 25.2, "unit": "%"}, {"measurement": "viability, T/C", "setting": "second compound 0.0316 µM, first compound 0.316 µM", "result": 21.7, "unit": "%"}, {"measurement": "viability, T/C", "setting": "second compound 0.0316 µM, first compound 1 µM", "result": 18.4, "unit": "%"}, {"measurement": "viability, T/C", "setting": "second compound 0.0316 µM, first compound 3.16 µM", "result": 7.32, "unit": "%"}, {"measurement": "viability, T/C", "setting": "second compound 0.0316 µM, first compound 10 µM", "result": 0.34, "unit": "%"}, {"measurement": "viability, T/C", "setting": "second compound 0.1 µM, first compound 0.0316 µM", "result": 27.1, "unit": "%"}, {"measurement": "viability, T/C", "setting": "second compound 0.1 µM, first compound 0.1 µM", "result": 23.6, "unit": "%"}, {"measurement": "viability, T/C", "setting": "second compound 0.1 µM, first compound 0.316 µM", "result": 25.7, "unit": "%"}, {"measurement": "viability, T/C", "setting": "second compound 0.1 µM, first compound 1 µM", "result": 20.1, "unit": "%"}, {"measurement": "viability, T/C", "setting": "second compound 0.1 µM, first compound 3.16 µM", "result": 5.12, "unit": "%"}, {"measurement": "viability, T/C", "setting": "second compound 0.1 µM, first compound 10 µM", "result": 0.15, "unit": "%"}, {"measurement": "viability, T/C", "setting": "second compound 0.316 µM, first compound 0.0316 µM", "result": 23.2, "unit": "%"}, {"measurement": "viability, T/C", "setting": "second compound 0.316 µM, first compound 0.1 µM", "result": 25.2, "unit": "%"}, {"measurement": "viability, T/C", "setting": "second compound 0.316 µM, first compound 0.316 µM", "result": 23.2, "unit": "%"}, {"measurement": "viability, T/C", "setting": "second compound 0.316 µM, first compound 1 µM", "result": 12.9, "unit": "%"}, {"measurement": "viability, T/C", "setting": "second compound 0.316 µM, first compound 3.16 µM", "result": 4.57, "unit": "%"}, {"measurement": "viability, T/C", "setting": "second compound 0.316 µM, first compound 10 µM", "result": 0.17, "unit": "%"}, {"measurement": "viability, T/C", "setting": "second compound 1 µM, first compound 0.0316 µM", "result": 18.1, "unit": "%"}, {"measurement": "viability, T/C", "setting": "second compound 1 µM, first compound 0.1 µM", "result": 18.6, "unit": "%"}, {"measurement": "viability, T/C", "setting": "second compound 1 µM, first compound 0.316 µM", "result": 14.2, "unit": "%"}, {"measurement": "viability, T/C", "setting": "second compound 1 µM, first compound 1 µM", "result": 19.3, "unit": "%"}, {"measurement": "viability, T/C", "setting": "second compound 1 µM, first compound 3.16 µM", "result": 3.08, "unit": "%"}, {"measurement": "viability, T/C", "setting": "second compound 1 µM, first compound 10 µM", "result": 0.12, "unit": "%"}, {"measurement": "viability, T/C", "setting": "second compound 3.16 µM, first compound 0.0316 µM", "result": 11.7, "unit": "%"}, {"measurement": "viability, T/C", "setting": "second compound 3.16 µM, first compound 0.1 µM", "result": 11.7, "unit": "%"}, {"measurement": "viability, T/C", "setting": "second compound 3.16 µM, first compound 0.316 µM", "result": 8.82, "unit": "%"}, {"measurement": "viability, T/C", "setting": "second compound 3.16 µM, first compound 1 µM", "result": 11.7, "unit": "%"}, {"measurement": "viability, T/C", "setting": "second compound 3.16 µM, first compound 3.16 µM", "result": 1.63, "unit": "%"}, {"measurement": "viability, T/C", "setting": "second compound 3.16 µM, first compound 10 µM", "result": 0.09, "unit": "%"}, {"measurement": "viability, T/C", "setting": "second compound 10 µM, first compound 0.0316 µM", "result": 5.1, "unit": "%"}, {"measurement": "viability, T/C", "setting": "second compound 10 µM, first compound 0.1 µM", "result": 4.07, "unit": "%"}, {"measurement": "viability, T/C", "setting": "second compound 10 µM, first compound 0.316 µM", "result": 4.35, "unit": "%"}, {"measurement": "viability, T/C", "setting": "second compound 10 µM, first compound 1 µM", "result": 3.57, "unit": "%"}, {"measurement": "viability, T/C", "setting": "second compound 10 µM, first compound 3.16 µM", "result": 0.59, "unit": "%"}, {"measurement": "viability, T/C", "setting": "second compound 10 µM, first compound 10 µM", "result": 0.16, "unit": "%"}]}
